# Laboratory results published in PMC10176470, “Engaging a Non-catalytic Cysteine Residue Drives Potent and Selective Inhibition of Caspase-6” (Journal of the American Chemical Society, 2023).
# Where two headings read alike, the source gives them in different places.
# Legend:
# Assay type in all cases: cell-based
# [1] = biological target: proteins of HEK293T cells transiently overexpressing caspase-6 (Homo sapiens, UniProt P63244); conditions: exp_ref Probe; protein GNB2L1 (P63244); analysis C6
# [2] = biological target: proteins of HEK293T cells transiently overexpressing caspase-6 (Homo sapiens, UniProt Q13200); conditions: protein PSMD2 (Q13200)
# [3] = biological target: proteins of HEK293T cells transiently overexpressing caspase-6 (Homo sapiens, UniProt P43243); conditions: exp_ref Probe; protein MATR3 (P43243); analysis C6
# [4] = biological target: proteins of HEK293T cells transiently overexpressing caspase-6 (Homo sapiens, UniProt P18621); conditions: exp_ref Probe; protein RPL17 (P18621); analysis C6
# [5] = biological target: proteins of HEK293T cells transiently overexpressing caspase-6 (Homo sapiens, UniProt Q15365); conditions: protein PCBP1 (Q15365); exp_ref Probe; analysis C6
# [6] = biological target: proteins of HEK293T cells transiently overexpressing caspase-6 (Homo sapiens, UniProt Q9NR30); conditions: exp_ref Probe; protein DDX21 (Q9NR30); analysis C6
# [7] = biological target: proteins of HEK293T cells transiently overexpressing caspase-6 (Homo sapiens, UniProt P06744); conditions: protein GPI (P06744), analysis C6
# [8] = biological target: proteins of HEK293T cells transiently overexpressing caspase-6 (Homo sapiens, UniProt Q9Y617); conditions: Probe; protein PSAT1 Q9Y617
# [9] = biological target: T1, proteins of HEK293T cells transiently overexpressing caspase-6 (Homo sapiens, UniProt P30048)
# T1 sequence (P30048 62-256): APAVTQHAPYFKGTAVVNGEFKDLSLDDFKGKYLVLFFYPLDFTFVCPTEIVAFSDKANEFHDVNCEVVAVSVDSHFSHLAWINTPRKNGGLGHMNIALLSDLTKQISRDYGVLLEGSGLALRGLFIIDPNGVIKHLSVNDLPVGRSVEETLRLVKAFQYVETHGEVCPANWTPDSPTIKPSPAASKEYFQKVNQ
# [10] = biological target: T2, proteins of HEK293T cells transiently overexpressing caspase-6 (Homo sapiens, UniProt O95197); conditions: protein RTN3 (O95197)
# T2 sequence (O95197 1-1032): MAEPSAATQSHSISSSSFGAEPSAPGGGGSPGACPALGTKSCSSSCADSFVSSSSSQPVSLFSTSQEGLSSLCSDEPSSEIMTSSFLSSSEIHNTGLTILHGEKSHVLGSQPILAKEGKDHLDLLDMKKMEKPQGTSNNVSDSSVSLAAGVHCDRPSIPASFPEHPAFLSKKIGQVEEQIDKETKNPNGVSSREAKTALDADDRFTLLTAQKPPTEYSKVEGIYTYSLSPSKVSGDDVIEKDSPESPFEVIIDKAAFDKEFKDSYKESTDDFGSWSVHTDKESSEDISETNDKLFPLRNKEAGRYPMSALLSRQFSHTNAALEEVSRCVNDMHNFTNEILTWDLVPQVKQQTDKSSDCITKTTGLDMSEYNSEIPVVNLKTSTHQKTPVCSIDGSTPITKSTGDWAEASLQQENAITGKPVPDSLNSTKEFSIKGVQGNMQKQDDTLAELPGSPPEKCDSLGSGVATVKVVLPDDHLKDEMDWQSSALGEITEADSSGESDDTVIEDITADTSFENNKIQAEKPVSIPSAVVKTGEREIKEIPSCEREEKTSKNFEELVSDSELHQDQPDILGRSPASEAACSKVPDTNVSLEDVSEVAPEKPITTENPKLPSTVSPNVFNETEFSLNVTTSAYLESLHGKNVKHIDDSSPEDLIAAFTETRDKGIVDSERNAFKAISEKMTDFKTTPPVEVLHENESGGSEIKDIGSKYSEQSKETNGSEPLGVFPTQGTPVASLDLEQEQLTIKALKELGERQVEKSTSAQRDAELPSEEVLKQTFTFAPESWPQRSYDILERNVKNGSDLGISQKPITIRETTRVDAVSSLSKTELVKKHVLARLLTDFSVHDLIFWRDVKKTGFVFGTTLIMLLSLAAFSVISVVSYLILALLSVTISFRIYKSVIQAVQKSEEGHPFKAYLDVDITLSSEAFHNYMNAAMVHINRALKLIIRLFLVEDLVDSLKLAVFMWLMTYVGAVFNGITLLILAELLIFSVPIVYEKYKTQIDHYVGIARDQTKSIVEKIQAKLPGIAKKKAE
# [11] = biological target: proteins of HEK293T cells transiently overexpressing caspase-6 (Homo sapiens, UniProt P62280); conditions: protein RPS11 (P62280), analysis C6
# [12] = biological target: proteins of HEK293T cells transiently overexpressing caspase-6 (Homo sapiens, UniProt P32119); conditions: exp_ref Probe; protein PRDX2 (P32119); analysis C6
# proteins of HEK293T cells transiently overexpressing caspase-6 (Homo sapiens, UniProt P32119), sequence (P32119 whole entry): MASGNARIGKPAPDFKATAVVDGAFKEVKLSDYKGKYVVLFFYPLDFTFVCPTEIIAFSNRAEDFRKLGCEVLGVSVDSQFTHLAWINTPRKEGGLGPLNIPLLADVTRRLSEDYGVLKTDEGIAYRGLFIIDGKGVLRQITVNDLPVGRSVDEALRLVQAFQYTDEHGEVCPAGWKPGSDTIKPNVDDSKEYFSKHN
# proteins of HEK293T cells transiently overexpressing caspase-6 (Homo sapiens, UniProt Q13200), sequence (Q13200 whole entry): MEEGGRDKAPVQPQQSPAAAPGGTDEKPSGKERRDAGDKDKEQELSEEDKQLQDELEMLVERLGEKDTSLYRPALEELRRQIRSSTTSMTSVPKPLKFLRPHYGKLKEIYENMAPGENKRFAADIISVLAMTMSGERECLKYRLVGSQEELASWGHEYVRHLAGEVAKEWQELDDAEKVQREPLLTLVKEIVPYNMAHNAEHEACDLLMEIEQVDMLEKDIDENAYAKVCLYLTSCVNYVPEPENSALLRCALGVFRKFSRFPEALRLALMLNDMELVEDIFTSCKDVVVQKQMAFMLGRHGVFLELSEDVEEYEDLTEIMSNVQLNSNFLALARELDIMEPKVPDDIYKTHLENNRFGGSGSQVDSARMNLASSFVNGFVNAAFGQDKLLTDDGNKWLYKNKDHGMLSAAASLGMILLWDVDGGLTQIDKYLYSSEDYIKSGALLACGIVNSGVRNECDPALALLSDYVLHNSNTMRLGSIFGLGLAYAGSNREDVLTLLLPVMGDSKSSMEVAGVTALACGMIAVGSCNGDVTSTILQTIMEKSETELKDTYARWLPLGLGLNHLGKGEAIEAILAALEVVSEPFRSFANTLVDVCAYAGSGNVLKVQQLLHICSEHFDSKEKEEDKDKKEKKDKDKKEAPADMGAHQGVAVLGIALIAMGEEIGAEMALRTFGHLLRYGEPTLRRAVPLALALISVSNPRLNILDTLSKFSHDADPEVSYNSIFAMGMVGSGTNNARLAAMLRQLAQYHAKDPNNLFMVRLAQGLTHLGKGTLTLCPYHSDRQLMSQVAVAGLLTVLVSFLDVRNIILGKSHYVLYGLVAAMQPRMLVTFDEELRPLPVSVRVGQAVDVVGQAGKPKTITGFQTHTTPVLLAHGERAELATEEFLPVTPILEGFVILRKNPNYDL
# proteins of HEK293T cells transiently overexpressing caspase-6 (Homo sapiens, UniProt Q9NR30), sequence (Q9NR30 whole entry): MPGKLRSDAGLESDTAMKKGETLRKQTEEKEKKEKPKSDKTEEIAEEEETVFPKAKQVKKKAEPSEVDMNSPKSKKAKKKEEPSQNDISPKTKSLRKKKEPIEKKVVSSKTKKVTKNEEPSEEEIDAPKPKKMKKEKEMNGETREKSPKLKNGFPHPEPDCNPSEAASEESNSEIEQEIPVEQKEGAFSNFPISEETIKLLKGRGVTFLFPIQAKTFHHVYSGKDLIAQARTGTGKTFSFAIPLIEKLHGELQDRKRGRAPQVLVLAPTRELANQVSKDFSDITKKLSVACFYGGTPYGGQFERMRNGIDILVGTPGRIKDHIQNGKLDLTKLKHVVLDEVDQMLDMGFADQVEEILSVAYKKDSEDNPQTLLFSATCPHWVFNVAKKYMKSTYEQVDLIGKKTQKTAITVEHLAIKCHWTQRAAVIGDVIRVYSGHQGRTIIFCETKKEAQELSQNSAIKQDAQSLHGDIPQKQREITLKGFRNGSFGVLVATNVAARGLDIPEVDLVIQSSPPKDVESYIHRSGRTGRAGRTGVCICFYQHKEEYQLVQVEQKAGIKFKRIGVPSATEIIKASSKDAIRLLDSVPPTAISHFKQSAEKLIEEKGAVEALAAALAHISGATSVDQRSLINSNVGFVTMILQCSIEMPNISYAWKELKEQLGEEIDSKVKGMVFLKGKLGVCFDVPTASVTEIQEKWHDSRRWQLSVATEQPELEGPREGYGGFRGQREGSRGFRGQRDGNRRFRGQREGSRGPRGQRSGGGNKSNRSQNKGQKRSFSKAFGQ
# proteins of HEK293T cells transiently overexpressing caspase-6 (Homo sapiens, UniProt P43243), sequence (P43243 whole entry): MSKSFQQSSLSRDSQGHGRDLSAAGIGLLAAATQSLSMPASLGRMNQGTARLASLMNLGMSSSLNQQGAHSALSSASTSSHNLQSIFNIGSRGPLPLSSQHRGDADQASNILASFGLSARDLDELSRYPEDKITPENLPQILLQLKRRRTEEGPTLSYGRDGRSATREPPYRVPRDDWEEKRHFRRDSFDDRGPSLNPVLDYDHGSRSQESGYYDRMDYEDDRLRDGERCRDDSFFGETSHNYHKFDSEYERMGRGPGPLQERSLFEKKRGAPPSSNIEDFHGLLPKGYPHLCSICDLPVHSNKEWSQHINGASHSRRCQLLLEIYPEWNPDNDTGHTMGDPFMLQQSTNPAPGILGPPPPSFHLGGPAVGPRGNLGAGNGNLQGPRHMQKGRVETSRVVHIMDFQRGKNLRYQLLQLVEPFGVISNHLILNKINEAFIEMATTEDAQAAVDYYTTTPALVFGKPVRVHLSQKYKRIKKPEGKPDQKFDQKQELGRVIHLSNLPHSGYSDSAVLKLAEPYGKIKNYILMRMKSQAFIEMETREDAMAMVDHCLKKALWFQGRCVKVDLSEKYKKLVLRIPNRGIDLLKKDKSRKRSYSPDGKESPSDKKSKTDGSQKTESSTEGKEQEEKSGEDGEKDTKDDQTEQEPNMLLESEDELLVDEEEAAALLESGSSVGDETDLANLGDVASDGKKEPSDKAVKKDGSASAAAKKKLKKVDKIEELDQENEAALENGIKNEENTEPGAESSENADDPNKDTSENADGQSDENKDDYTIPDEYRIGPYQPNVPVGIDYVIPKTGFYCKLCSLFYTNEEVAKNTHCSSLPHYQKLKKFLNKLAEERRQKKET
# proteins of HEK293T cells transiently overexpressing caspase-6 (Homo sapiens, UniProt Q15365), sequence (Q15365 whole entry): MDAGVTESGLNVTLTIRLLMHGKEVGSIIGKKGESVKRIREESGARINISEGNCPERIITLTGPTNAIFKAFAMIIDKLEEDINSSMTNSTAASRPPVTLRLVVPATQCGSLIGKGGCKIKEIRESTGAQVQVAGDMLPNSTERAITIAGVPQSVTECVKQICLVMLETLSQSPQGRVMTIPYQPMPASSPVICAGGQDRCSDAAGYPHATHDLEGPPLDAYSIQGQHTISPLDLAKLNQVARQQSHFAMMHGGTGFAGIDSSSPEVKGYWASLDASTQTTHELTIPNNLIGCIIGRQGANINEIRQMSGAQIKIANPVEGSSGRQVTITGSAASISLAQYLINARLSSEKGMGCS
# proteins of HEK293T cells transiently overexpressing caspase-6 (Homo sapiens, UniProt Q9Y617), sequence (Q9Y617 whole entry): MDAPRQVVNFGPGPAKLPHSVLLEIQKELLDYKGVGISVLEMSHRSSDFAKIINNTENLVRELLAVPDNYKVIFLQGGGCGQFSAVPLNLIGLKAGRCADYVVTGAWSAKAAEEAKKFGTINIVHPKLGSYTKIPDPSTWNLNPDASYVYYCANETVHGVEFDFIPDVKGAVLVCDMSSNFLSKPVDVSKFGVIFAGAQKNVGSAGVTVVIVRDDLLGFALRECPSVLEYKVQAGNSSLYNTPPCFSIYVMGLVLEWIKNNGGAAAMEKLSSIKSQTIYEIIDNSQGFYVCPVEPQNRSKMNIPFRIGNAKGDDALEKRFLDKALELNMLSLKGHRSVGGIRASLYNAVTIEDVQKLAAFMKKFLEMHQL
structure (smiles),measurement,setting,value
C#CCOc1ccc([C@@H]2C[C@@H](C(=O)Nc3ccc(OC(F)(F)F)cc3)CN(S(=O)(=O)C=C)C2)cc1 (relative stereo) [13-t],enrich.exp.med,[1],0.2005
same,enrich.exp.med,"[2]; exp_ref Probe, analysis C6",1.027
same,enrich.exp.med.lin,[2],2.037
same,enrich.exp.med.log2,[2],1.027
same,enrich.exp.med,[3],0.5323
same,enrich.exp.med,[4],0.5148
same,enrich.exp.med,[5],1.571
same,enrich.exp.med,[6],0.5934
same,enrich.exp.med.lin,[7]; Expt Probe,5.762
same,enrich.exp.med.log2,[7]; Expt Probe,2.527
same,enrich.exp.med,[7]; exp_ref Probe,2.527
same,enrich.exp.med,[8],-1.015
same,enrich.exp.med,"[9]; Probe, protein PRDX3 P30048",-1.058
same,enrich.exp.med.lin,[9]; protein PRDX3 (P30048),0.4804
same,enrich.exp.med.log2,[9]; protein PRDX3 (P30048),-1.058
same,enrich.exp.med.lin,[10],5.629
same,enrich.exp.med.log2,[10],2.493
same,enrich.exp.med.lin,"[10]; Expt Probe, analysis C6",5.629
same,enrich.exp.med.log2,"[10]; Expt Probe, analysis C6",2.493
same,enrich.exp.med,"[10]; exp_ref Probe, analysis C6",2.493
same,enrich.exp.med.lin,[11]; Expt Probe,5.0581
same,enrich.exp.med.log2,[11]; Expt Probe,2.3386
same,enrich.exp.med,[11]; exp_ref Probe,2.3386
same,enrich.exp.med,[12],0.2933
